Here are results for 30 compounds from patent publication US20230103791A1 (GLAXOSMITHKLINE INTELLECTUAL PROPERTY DEVELOPMENT LIMITED, priority 2019, published 2023).

SMILES strings stand for the structures.

T1 sequence (Q9Y5Y9 whole entry): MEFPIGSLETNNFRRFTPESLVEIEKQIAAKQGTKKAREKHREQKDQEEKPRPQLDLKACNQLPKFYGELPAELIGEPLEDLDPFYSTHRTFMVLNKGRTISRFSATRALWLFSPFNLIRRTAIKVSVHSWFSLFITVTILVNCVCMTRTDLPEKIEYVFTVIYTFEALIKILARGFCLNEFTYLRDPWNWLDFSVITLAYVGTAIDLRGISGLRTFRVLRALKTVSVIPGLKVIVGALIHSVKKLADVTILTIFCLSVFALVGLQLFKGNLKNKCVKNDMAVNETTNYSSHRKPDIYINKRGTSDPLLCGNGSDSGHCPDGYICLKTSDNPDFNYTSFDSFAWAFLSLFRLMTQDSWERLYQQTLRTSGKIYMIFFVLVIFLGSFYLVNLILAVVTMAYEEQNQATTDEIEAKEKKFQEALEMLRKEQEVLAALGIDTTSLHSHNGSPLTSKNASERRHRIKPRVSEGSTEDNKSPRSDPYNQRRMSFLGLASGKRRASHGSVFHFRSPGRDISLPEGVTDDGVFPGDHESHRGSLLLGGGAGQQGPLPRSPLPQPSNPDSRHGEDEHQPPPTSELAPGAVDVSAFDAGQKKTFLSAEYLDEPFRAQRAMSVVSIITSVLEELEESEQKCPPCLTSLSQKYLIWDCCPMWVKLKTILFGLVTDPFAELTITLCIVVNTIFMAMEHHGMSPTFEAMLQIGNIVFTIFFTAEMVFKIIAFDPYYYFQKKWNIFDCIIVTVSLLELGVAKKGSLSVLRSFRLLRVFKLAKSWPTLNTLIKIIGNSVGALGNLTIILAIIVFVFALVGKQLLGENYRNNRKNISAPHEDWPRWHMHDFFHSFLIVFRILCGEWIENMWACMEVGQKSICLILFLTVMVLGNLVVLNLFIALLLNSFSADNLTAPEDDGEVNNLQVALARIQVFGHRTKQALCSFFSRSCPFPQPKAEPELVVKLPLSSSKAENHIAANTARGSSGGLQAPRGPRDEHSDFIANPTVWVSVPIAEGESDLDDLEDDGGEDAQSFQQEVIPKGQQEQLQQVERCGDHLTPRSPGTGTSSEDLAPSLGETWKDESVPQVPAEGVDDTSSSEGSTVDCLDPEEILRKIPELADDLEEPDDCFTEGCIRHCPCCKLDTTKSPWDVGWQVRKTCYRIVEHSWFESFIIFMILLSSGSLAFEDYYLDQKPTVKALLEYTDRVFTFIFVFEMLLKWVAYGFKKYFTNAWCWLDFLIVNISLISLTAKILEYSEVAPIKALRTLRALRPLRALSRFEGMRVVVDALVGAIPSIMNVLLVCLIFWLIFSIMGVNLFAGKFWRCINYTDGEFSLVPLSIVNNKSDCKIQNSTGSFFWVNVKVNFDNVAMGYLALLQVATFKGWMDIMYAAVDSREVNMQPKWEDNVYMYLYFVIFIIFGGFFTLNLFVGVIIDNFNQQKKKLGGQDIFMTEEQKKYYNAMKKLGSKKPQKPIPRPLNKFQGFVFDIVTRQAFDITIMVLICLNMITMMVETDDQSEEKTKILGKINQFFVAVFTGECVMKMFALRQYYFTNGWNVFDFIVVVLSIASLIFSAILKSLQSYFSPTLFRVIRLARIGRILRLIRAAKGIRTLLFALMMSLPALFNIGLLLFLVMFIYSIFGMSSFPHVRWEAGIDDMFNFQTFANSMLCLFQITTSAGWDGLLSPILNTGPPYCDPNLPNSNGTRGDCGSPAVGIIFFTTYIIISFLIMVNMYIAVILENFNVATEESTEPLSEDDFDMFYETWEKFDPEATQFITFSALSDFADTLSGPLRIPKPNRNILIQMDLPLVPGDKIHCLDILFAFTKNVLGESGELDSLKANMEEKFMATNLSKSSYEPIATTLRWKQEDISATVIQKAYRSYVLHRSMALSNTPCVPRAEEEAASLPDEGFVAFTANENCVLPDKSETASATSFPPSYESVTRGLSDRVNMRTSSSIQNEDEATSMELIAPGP
T1 sequence (Q07699 19-218 partner): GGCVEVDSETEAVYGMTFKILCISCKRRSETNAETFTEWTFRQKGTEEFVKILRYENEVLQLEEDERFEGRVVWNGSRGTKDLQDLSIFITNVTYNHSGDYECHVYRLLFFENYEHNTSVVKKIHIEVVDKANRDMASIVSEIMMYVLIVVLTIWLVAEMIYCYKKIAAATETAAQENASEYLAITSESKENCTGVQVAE

The first experiment addresses T1, human Nav1.8 (Homo sapiens, UniProt Q9Y5Y9).
T1 construct: expressed in transfected cells; host or cells: HEK293 (HEK293-Nav1.8)
In words: Nav1.8 sodium channels assay, QPatch 48 HTX electrophysiology in HEK293-Nav1.8 cells. It is filed as cell-based. The conditions noted are these: Table 1; HEK293-Nav1.8, QPatch 48 HTX, half inactivation state voltage protocol (V1/2); single run or average of two or more runs; read-out: Nav1.8 pIC50 (converted). The procedure, abridged: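 IC50 came from 6-8 point curves of P2 current amplitude, normalized to baseline and a positive reference, and corrected for run-down using vehicle-only wells. Automated patch clamp used HEK293-Nav1.8 (with Navβ1 and TREK1) at pH 7.4 outside and CsF-based solution inside. An 8 s inactivating step at −46 mV preceded the 0 mV test pulse, repeated at 0.07 Hz.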
On the technique in general: In patch-clamp work, channel activity is measured electrically.
On to `Cc1cc(F)ccc1N1CN(c2ccc(=O)[nH]c2)C(=O)c2cc(C(F)(F)F)ccc21` [drawing 269, 1-(4-fluoro-2-methylphenyl)-3-(6-oxo-1,6-dihydropyridin-3-yl)-6-(trifluoromethyl)-2,3-dihydroquinazolin-4(1H)-one], for which the IC50 was 316 nM.
For `Cc1cc(Br)ccc1N1CN(c2ccc(=O)[nH]c2)C(=O)c2ccc(C(F)(F)F)cc21` [drawing 283, 1-(4-bromo-2-methylphenyl)-3-(6-oxo-1,6-dihydropyridin-3-yl)-7-(trifluoromethyl)-2,3-dihydroquinazolin-4(1H)-one], the IC50 is 316 nM.
The same measure, in the same setting: to `Cc1[nH]c(=O)ccc1N1CN(c2ccc(F)cc2F)c2cc(C(F)(F)F)ccc2C1=O` [drawing 301, 1-(2,4-difluorophenyl)-3-(2-methyl-6-oxo-1,6-dihydropyridin-3-yl)-7-(trifluoromethyl)-2,3-dihydroquinazolin-4(1H)-one] belongs 251 nM; to `COc1cc(F)ccc1N1CN(c2ccc(=O)[nH]c2)C(=O)c2c1cccc2C(F)(F)F` [drawing 281, 1-(4-fluoro-2-methoxyphenyl)-3-(6-oxo-1,6-dihydropyridin-3-yl)-5-(trifluoromethyl)-2,3-dihydroquinazolin-4(1H)-one], 6310 nM.

Still in this experiment, the particulars now being: at least one set of experimental runs; read-out: average pIC50 value against Nav1.8 (converted).
In the case of `Cc1cc(F)ccc1N1CN(c2ccc(=O)[nH]c2C)C(=O)c2cc(C#N)c(OC(F)(F)F)cc21` [Example 112, 1-(4-fluoro-2-methylphenyl)-3-(2-methyl-6-oxo-1,6-dihydropyridin-3-yl)-4-oxo-7-(trifluoromethoxy)-1,2,3,4-tetrahydroquinazoline-6-carbonitrile], the IC50 was no more than 100 nM.
On the same count and under the same terms, to `Cc1cc(F)ccc1N1c2cc(C(F)(F)F)ccc2C(=O)N(c2ccc(=O)[nH]c2)C1C` (stereo not drawn) [Example 39, 1-(4-fluoro-2-methylphenyl)-2-methyl-3-(6-oxo-1,6-dihydropyridin-3-yl)-7-(trifluoromethyl)-2,3-dihydroquinazolin-4(1H)-one] belongs 794 to 7940 nM; to `O=C1c2ccc(C(F)(F)F)cc2N(c2ccc(F)cc2)CN1c1ccc(=O)[nH]c1` [Example 144, 1-(4-Fluorophenyl)-3-(6-oxo-1,6-dihydropyridin-3-yl)-7-(trifluoromethyl)-2,3-dihydroquinazolin-4(1H)-one], 126 to 631 nM.
For `Cc1cc(F)ccc1N1CN(c2cccc(S(C)(=O)=O)c2)C(=O)c2ccc(C(F)(F)F)cc21` [Example 14, 1-(4-fluoro-2-methylphenyl)-3-(3-(methylsulfonyl)phen-yl)-7-(trifluoromethyl)-2,3-dihydroquinazolin-4(1H)-one], the IC50 is 794 to 7940 nM.
Consider `Cc1cc(F)ccc1N1CN(c2ccc(=O)[nH]c2C)C(=O)c2cc(OC(F)(F)F)ccc21` [Example 188, 1-(4-fluoro-2-methylphenyl)-3-(2-methyl-6-oxo-1,6-dihydropyridin-3-yl)-6-(trifluoromethoxy)-2,3-dihydroquinazolin-4(1H)-one], for which the IC50 is no more than 100 nM.
As for `Cc1cc(F)ccc1N1CN(c2ccc(=O)[nH]c2)C(=O)c2ccc(C(F)(F)F)cc21` [Example 36, 1-(4-fluoro-2-methylphenyl)-3-(6-oxo-1,6-dihydropyridin-3-yl)-7-(trifluoromethyl)-2,3-dihydroquinazolin-4(1H)-one], the IC50 is 126 to 631 nM.
Consider `Cc1cc(F)ccc1N1CN(c2cnc(=O)[nH]c2C)C(=O)c2cc(Cl)c(C#N)cc21` [Example 173, 6-chloro-1-(4-fluoro-2-methylphenyl)-3-(6-methyl-2-oxo-1,2-dihydropyrimidin-5-yl)-4-oxo-1,2,3,4-tetra-hydroquinazoline-7-carbonitrile], for which the IC50 was no more than 100 nM.
Same read-out and setting: to `Cc1c[n+]([O-])ccc1N1CN(c2ccc(OC(F)(F)F)cc2C)c2cc(F)c(Cl)cc2C1=O` [Example 246, 4-(6-chloro-7-fluoro-1-(2-methyl-4-(trifluoromethoxy)phenyl)-4-oxo-1,4-dihydroquinazolin-3(2H)-yl)-3-methylpyridine 1-oxide] belongs no more than 100 nM; to `Cc1cc(F)ccc1N1CN(c2ccc(=O)[nH]c2C)C(=O)c2cc(C(F)(F)F)c(F)cc21` [Example 107, 7-fluoro-1-(4-fluoro-2-methylphenyl)-3-(2-methyl-6-oxo-1,6-dihydropyridin-3-yl)-6-(trifluoromethyl)-2,3-dihydroquinazolin-4(1H)-one], no more than 100 nM; to `CCc1[nH]c(=O)ccc1N1CN(c2ccc(F)cc2C(C)C)c2cc(C(F)(F)F)ccc2C1=O` [Example 83, 3-(2-ethyl-6-oxo-1,6-dihydropyridin-3-yl)-1-(4-fluoro-2-isopropylphenyl)-7-(trifluoromethyl)-2,3-dihydroquinazolin-4(1H)-one], no more than 100 nM.
On the same count and under the same terms, to `Cc1ccc2c(n1)N(c1ccc(F)cc1C)CN(c1ccc(=O)[nH]c1C)C2=O` [Example 206, 1-(4-fluoro-2-methylphenyl)-7-methyl-3-(2-methyl-6-oxo-1,6-dihydropyridin-3-yl)-2,3-dihydropyrido[2,3-d]pyrimidin-4(1H)-one] belongs 126 to 631 nM.
Same read-out and setting: to `Cc1cc(=O)[nH]c(C)c1N1CN(c2ccc(F)cc2C(C)C)c2ccc(Cl)cc2C1=O` (single isomer, unassigned) [Example 292, 6-Chloro-3-(2,4-dimethyl-6-oxo-1,6-dihydropyridin-3-yl)-1-(4-fluoro-2-isopropylphenyl)-2,3-dihydroquinazolin-4(1H)-one] belongs 126 to 631 nM.
Consider `Cc1cc(F)ccc1N1CN(c2ccc(=O)[nH]c2C)C(=O)c2ccc(C3CC3)cc21` [Example 187, 7-cyclopropyl-1-(4-fluoro-2-methylphenyl)-3-(2-methyl-6-oxo-1,6-dihydropyridin-3-yl)-2,3-dihydroquinazolin-4(1H)-one], for which the IC50 is no more than 100 nM.
Regarding `Cc1cc(F)ccc1N1CN(c2ccc(=O)[nH]c2C)C(=O)c2cc(F)c(C(F)F)cc21` [Example 70, 7-(difluoromethyl)-6-fluoro-1-(4-fluoro-2-methylphenyl)-3-(2-methyl-6-oxo-1,6-dihydropyridin-3-yl)-2,3-dihydroquinazolin-4(1H)-one], the IC50 is no more than 100 nM.
For `Cc1cc(F)ccc1N1CN(c2ccc(=O)n(C)c2)C(=O)c2ccc(C(F)(F)F)cc21` [Example 1], the IC50 was 794 to 7940 nM.
Same read-out and setting: to `Cc1[nH]c(=O)ccc1N1CN(c2ccc(F)c(O)c2C)c2cc(C(F)(F)F)ccc2C1=O` [Example 77, 1-(4-fluoro-3-hydroxy-2-methylphenyl)-3-(2-methyl-6-oxo-1,6-dihydropyridin-3-yl)-7-(trifluoromethyl)-2,3-dihydroquinazolin-4(1H)-one] belongs 126 to 631 nM; to `Cc1cc(=O)[nH]c(C)c1N1CN(c2ccc(F)cc2C(C)C)c2cc(C(F)(F)F)ccc2C1=O` (single isomer, unassigned) [Example 289, 3-(2,4-Dimethyl-6-oxo-1,6-dihydropyridin-3-yl)-1-(4-fluoro-2-isopropylphenyl)-7-(trifluoromethyl)-2,3-dihydroquinazolin-4(1H)-one], 794 to 7940 nM.
Turning to `Cc1cc(F)ccc1N1c2cc(C(F)(F)F)ccc2C(=O)N(c2ccc(=O)[nH]c2)C1C` (single isomer, unassigned) [Example 285], the IC50 was 794 to 7940 nM.
On the same count and under the same terms, to `Cc1cc(F)ccc1N1CN(c2cc[nH]c(=O)c2C)C(=O)c2ccc(C(F)(F)F)cc21` [Example 55, 1-(4-fluoro-2-methylphenyl)-3-(3-methyl-2-oxo-1,2-dihydropyridin-4-yl)-7-(trifluoromethyl)-2,3-dihydroquinazolin-4(1H)-one] belongs 794 to 7940 nM; to `Cc1cc(F)ccc1N1CN([C@H]2CCC(=O)N[C@H]2C)C(=O)c2ccc(C(F)(F)F)cc21` [Example 287, 1-(4-Fluoro-2-methylphenyl)-3-((2S,3S)-2-methyl-6-oxopiperidin-3-yl)-7-(trifluoromethyl)-2,3-dihydroquinazolin-4(1H)-one], 794 to 7940 nM; to `Cc1cc(F)ccc1N1CN(c2ccc(=O)[nH]c2)C(=O)c2ccc(C(F)(F)F)c(C)c21` [Example 45, 1-(4-fluoro-2-methylphenyl)-8-methyl-3-(6-oxo-1,6-dihydropyridin-3-yl)-7-(trifluoromethyl)-2,3-dihydroquinazolin-4(1H)-one], 794 to 7940 nM.
On the same count and under the same terms, to `CC1=C(N2CN(c3ccc(F)cc3C)c3cc(C(F)(F)F)ccc3C2=O)CNC(=O)N1` [Example 271, 1-(4-fluoro-2-methylphenyl)-3-(6-methyl-2-oxo-1,2,3,4-tetrahydro-pyrimidin-5-yl)-7-(trifluoromethyl)-2,3-dihydroquinazolin-4(1H)-one] belongs no more than 100 nM; to `Cc1cc(F)ccc1N1CN(c2cc[nH]c(=O)c2)C(=O)c2c1ccc(Cl)c2F` [Example 136, 6-chloro-5-fluoro-1-(4-fluoro-2-methylphenyl)-3-(2-oxo-1,2-dihydropyridin-4-yl)-2,3-dihydroquinazolin-4(1H)-one], 794 to 7940 nM; to `Cc1[nH]c(=O)ccc1N1CN(c2cc(F)cc(F)c2C)c2ccc(C(F)(F)F)cc2C1=O` [Example 235, 1-(3,5-difluoro-2-methylphenyl)-3-(2-methyl-6-oxo-1,6-dihydropyridin-3-yl)-6-(trifluoromethyl)-2,3-dihydroquinazolin-4(1H)-one], 794 to 7940 nM.
Turning to `CC1=C(N2CN(c3ccc(F)cc3C)c3cc(C(F)(F)F)ccc3C2=O)CCC(=O)N1` [Example 269, 1-(4-fluoro-2-methylphenyl)-3-(2-methyl-6-oxo-1,4,5,6-tetrahydropyridin-3-yl)-7-(trifluoromethyl)-2,3-dihydroquinazolin-4(1H)-one], the IC50 is no more than 100 nM.
The same measure, in the same setting: to `Cc1cc(O)ccc1N1CN(c2ccc(F)cc2C)c2ccc(C(F)(F)F)cc2C1=O` [Example 266, 1-(4-Fluoro-2-methylphenyl)-3-(4-hydroxy-2-methylphenyl)-6-(trifluoromethyl)-2,3-dihydroquinazolin-4(1H)-one] belongs 794 to 7940 nM.
